Reference: patent US20170044208A1, “SELECTIVE GLUCOCORTICOID RECEPTOR LIGANDS” (The University of Manchester, priority 2013, published 2017)

Legend:
rat adjuvant arthritis = assay: Established rat adjuvant arthritis; type: in vivo; conditions: increasing doses, FIG. 7
From the text: Established rat arthritis was chosen as the most relevant predictive model for chronic inflammatory arthritis in man. The disease is initiated with a caudal injection of complete Freund's adjuvant and the disease is established after 14 days. Anti-inflammatory molecules are given orally, usually once a day and after 7 days the animals are sacrificed. Paw volumes are the primary measurement and as a secondary measure inflammatory lesions are scored at a number of sites. At autopsy adrenal, spleen and thymus weights are recorded.
The arthritis score for the rats was used in these studies, as the inflammatory disease consists of both destructive inflammatory arthritis, but also systemic manifestations.
This analysis uses the area under the curve of arthritis score over the course of the experiment to yield a single, integrated measure for each experimental animal. The area under the curve of the vehicle treated animal is indicated on the graph for comparison purposes, but marked at an arbitrary log dose.

NFkB = assay: Transrepression assay (NFκB-LUC reporter in HeLa cells, TNF stimulated); type: cell-based; conditions: comparison table
[1] = biological target: T1, mineralocorticoid receptor (MR) (Homo sapiens, UniProt P08235); assay: Steroid receptor cross-reactivity, mineralocorticoid receptor; type: cell-based; conditions: FIG. 3
T1 sequence (P08235 1-984): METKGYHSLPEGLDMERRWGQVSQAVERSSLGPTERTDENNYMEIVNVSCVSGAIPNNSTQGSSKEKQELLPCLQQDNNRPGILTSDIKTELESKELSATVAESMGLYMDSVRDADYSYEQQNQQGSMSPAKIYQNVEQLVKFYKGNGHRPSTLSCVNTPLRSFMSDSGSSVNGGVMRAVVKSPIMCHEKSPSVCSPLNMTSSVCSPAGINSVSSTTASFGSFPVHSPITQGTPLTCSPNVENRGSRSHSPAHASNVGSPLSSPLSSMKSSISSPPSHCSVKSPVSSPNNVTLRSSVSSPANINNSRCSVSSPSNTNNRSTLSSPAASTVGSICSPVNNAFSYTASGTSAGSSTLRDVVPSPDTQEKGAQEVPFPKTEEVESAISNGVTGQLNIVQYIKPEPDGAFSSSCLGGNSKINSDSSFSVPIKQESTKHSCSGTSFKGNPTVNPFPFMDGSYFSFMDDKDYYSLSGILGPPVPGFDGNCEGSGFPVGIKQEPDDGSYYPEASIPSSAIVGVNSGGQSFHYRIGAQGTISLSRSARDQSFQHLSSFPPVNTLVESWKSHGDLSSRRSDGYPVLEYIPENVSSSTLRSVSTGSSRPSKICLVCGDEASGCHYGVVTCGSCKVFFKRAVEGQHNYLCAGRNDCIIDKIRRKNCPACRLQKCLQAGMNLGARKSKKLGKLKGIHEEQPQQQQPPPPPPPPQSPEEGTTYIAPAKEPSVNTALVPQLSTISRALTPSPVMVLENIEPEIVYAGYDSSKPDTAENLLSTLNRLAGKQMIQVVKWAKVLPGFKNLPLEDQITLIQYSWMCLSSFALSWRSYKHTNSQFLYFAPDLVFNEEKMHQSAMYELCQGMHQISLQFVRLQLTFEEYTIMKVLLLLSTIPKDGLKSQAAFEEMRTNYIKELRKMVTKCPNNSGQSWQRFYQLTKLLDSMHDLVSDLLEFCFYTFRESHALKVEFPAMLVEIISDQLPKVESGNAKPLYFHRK
From the text: There is a high degree of structural similarity between the various human steroid receptors. Ligands may therefore cross-react with other members of the steroid receptor family. In particular progesterone receptor and mineralocorticoid receptor show the highest structural similarity.

osteoblast activity = assay: Rat bone formation assay, serum osteocalcin; type: in vivo; conditions: daily oral, terminal (35 day) plasma, FIG. 9
From the text: For the analysis of bone metabolism, and its regulation by orally administered GC, a rat bone formation assay was used.
Terminal (35 day) plasma was harvested, and osteocalcin measured, as an integrated measure of osteoblast activity across the skeleton.

[2] = biological target: T2, Glucocorticoid Receptor (GR) (Homo sapiens, UniProt P04150); assay: Transactivation assay (MMTV-Luc reporter in HeLa cells); type: cell-based; conditions: comparison table; against maximal activation seen with dexamethasone
T2 construct: Cells were transfected the next day with MMTV-Luc (5 μg) and pGL4-hRLuc (0.1 μg); endogenous in cells; host or cells: HeLa
T2 sequence (P04150 1-777): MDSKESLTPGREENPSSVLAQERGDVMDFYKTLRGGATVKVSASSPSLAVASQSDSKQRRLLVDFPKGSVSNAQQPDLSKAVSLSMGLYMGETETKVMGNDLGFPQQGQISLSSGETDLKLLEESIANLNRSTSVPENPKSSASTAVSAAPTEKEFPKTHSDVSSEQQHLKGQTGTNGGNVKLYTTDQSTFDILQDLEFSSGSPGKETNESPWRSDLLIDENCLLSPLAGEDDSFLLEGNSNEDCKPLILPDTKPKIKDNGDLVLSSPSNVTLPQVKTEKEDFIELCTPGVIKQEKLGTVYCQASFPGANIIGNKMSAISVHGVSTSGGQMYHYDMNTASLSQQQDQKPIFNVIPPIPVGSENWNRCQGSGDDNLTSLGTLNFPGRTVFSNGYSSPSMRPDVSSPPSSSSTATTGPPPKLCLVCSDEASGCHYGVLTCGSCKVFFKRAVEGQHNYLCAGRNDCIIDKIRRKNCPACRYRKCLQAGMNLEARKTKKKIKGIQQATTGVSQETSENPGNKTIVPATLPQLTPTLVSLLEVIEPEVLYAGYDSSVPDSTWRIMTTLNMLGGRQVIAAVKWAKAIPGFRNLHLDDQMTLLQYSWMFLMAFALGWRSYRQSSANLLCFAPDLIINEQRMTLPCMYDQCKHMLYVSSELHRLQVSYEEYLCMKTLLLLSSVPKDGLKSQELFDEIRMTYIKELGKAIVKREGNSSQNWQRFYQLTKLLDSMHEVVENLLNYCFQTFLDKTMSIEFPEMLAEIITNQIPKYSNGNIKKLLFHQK

endosteal bone formation = assay: Rat endosteal bone increment; type: in vivo; conditions: daily oral dose, FIG. 10
From the text: However, osteoblast activity is not uniform across the skeleton, which may result in either over, or under estimation of the steroid effect. In young, growing, rats long bone remodelling during bone growth offers an attractive model to study active bone formation as the endosteal surface has new bone formation as the diameter of the shaft decreases due to endosteal bone formation, and periosteal bone resorption. As shown in FIG. 11 (CT reconstruction) as long bones grow the diameter of the shaft at the growing end (20% mark) is greater than that towards the middle of the bone (30% and 40% marks) due to loss of bone at the outer surface, or periosteal surface, and deposition of bone, due to osteoblast action, on the inner surface, or endosteal surface.
In contrast, there was no effect of Dex124 seen until 100 mg/Kg, giving an estimated IC50 of approximately 90 mg/Kg.

`C[C@]12C=CC(=O)C=C1CC[C@@H]1[C@@H]2[C@@H](O)C[C@@]2(C)[C@H]1CC[C@]2(O)C(=O)CO` [Pred, prednisolone] was tested, and the “arthritis clinical score (AUC)” value (rat adjuvant arthritis) was “inhibit arthritis clinical score”, the IC50 (NFkB; Homo sapiens, HeLa, half-maximal repression of NFkB, multiple experiments, read-out: IC50) was 12.9 nM and the TR % (NFkB; maximal NFkB repression compared to Dexamethasone) was 99%. For the same molecule, the “activity on mineralocorticoid receptor” value [1] was “significant activity”, the osteocalcin concentration (osteoblast activity) was “dose-dependent inhibition of osteocalcin concentration” and the TA % [2] was 68%. For the same molecule, the “IC50 for decrease in bone increment” value (endosteal bone formation) was 7.8 mg/kg.
